Consider 15 compounds from patent US8207160B2, “Tetrahydrobenzazepines and their use in he modulation of the dopamine D3 receptor” (Abbott GmbH & Co. KG, priority 2003, dated 2012).

Where two headings read alike, the source gives them in different places.

For assay [1], the target named is T1, human dopamine D2L receptors (long isoform) (Homo sapiens, UniProt P14416).
T1 construct: expressed in transfected cells; membranes used
Description: Dopamine D2L receptor binding, displacement of [125I]-iodospiperone. The conditions noted are these: Ki(D2L)/Ki(D3); human D2L and D3 receptors in HEK-293 membranes. The method, then: (§1) C) Biological Investigations—Receptor-Binding Studies: • The substance to be tested was dissolved either in methanol/Chremophor®) (BASF-AG) or in dimethyl sulfoxide and then diluted with water to the desired concentration.
II. Dopamine D2L receptor: • The mixture (1 ml) was composed of membranes from ˜10^6 HEK-293 cells with stably expressed human dopamine D2L receptors (long isoform) and 0.01 nM [^125I]-iodospiperone and incubation buffer (total binding) or additionally test substance (inhibition plot) or 1 μM haloperidol (nonspecific binding). Triplicate assays were carried out. • The incubation buffer contained 50 mM Tris, 120 mM NaCl, 5 mM KCl, 2 mM CaCl2, 2 mM MgCl2 and 0.1% bovine serum albumin. The buffer was adjusted to 7.4 with HCl.
(§2) III. Measurement and Evaluation: • After incubation at 25° C. for 60 minutes, the mixtures were filtered through Wathman GF/B glass fiber filters under vacuum using a cell harvester. The filters were transferred using a filter transfer system into scintillation vials. After addition of 4 ml of Ultima Gold® (Packard), the samples were shaken for one hour and then the radioactivity was counted in a Beta Counter (Packard, Tricarb 2000 or 2200CA). The cp values were converted into dpm on the basis of a standard quench series with the aid of the program supplied with the instrument. • The inhibition plots were evaluated by iterative nonlinear regression analysis using the Statistical Analysis System (SAS), similar to the “LIGAND” program described by Munson and Rodbard. • The compounds of the invention show very good affinities for the D3 receptor in these assays (<100 nM, frequently <50 nM) and bind selectively to the D3 receptor.
(In general: Loss of bound radioactivity is the signal in a displacement assay; it reports binding, not function.)

Assay [2] deals with T2, human dopamine D3 receptors (Homo sapiens, UniProt P35462).
T2 construct: expressed in transfected cells; membranes used
T2 sequence (P35462 whole entry): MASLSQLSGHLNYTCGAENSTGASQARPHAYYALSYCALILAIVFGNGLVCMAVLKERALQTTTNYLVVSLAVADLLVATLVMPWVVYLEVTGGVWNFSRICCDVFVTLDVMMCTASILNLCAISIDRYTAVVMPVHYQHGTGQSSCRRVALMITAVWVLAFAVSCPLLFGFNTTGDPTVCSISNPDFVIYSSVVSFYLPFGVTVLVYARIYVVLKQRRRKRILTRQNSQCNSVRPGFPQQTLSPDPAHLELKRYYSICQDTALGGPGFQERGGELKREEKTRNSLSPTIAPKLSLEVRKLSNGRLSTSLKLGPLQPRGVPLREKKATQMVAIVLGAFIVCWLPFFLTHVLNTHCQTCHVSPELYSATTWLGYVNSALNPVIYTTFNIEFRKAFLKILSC
As to the kind of experiment: Dopamine D3 receptor binding, displacement of [125I]-iodosulpride. The method, then: as §1
I. Dopamine D3 Receptor: • The mixture (0.250 ml) was composed of membranes from ˜10^6 HEK-293 cells with stably expressed human dopamine D3 receptors, 0.1 nM [^125I]-iodosulpride and incubation buffer (total binding) or additionally test substance (inhibition plot) or 1 μM spiperone (nonspecific binding). Triplicate assays were carried out. • The incubation buffer contained 50 mM Tris, 120 mM NaCl, 5 mM KCl, 2 mM CaCl2, 2 mM MgCl2 and 0.1% bovine serum albumin, 10 μM quinolone, 0.1% ascorbic acid (prepared freshly each day). The buffer was adjusted to pH 7.4 with HCl.
as §2

[3] abbreviates: membranes from HEK-293 cells with stably expressed human dopamine D3 receptors, 0.1 nM [125I]-iodosulpride, 25° C., 60 minutes, read-out: Ki (D3).

T1 sequence (P14416 whole entry, canonical isoform): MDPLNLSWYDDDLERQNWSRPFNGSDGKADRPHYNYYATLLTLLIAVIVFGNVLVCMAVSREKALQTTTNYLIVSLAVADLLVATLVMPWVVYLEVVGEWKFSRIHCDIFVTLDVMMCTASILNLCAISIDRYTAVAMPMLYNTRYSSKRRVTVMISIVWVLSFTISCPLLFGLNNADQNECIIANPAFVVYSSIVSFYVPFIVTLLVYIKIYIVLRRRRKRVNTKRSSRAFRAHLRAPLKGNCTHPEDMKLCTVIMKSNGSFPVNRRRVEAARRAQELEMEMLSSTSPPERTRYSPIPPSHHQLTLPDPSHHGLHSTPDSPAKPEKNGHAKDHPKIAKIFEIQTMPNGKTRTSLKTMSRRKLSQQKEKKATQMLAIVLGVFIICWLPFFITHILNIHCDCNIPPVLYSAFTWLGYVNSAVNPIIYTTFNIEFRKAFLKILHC

With `CCCN1CCc2ccc(NS(=O)(=O)c3ccc(C)cc3)cc2CC1.O=C(O)C(F)(F)F` [Example 11, 4-Methyl-N-(3-Propyl-2,3,4,5-Tetrahydro-1H-3-Benzazepin-7-yl)Benzene Sulfonamide Trifluoroacetate], the “Selectivity vs. D2L*” value in assay [1] is given as 112. Moreover, the Ki (as a rule, a measure of affinity in units of concentration, obtained from inhibition or displacement) in assay [2] was 4.7 nM.
Turning to `CC(C)c1ccc(S(=O)(=O)Nc2ccc3c(c2)CCN(C)CC3)cc1.Cl` [Example 56, 4-Isopropyl-N-(3-Methyl-2,3,4,5-Tetrahydro-1H-3-Benzazepin-7-yl)Benzenesulfonamide Hydrochloride], the “Selectivity vs. D2L*” value in assay [1] was determined as 66. The Ki in assay [2] (setting [3]) is 1.2 nM.
Regarding `C=Cc1ccc(S(=O)(=O)Nc2ccc3c(c2)CCN(CCC)CC3)cc1.Cl` [Example 4, N-(3-Propyl-2,3,4,5-Tetrahydro-1H-3-Benzazepin-7-yl)-4-Vinylbenzenesulfonamide Hydrochloride], the “Selectivity vs. D2L*” value in assay [1] came to 435. Also, the Ki in assay [2] (setting [3]) is 0.5 nM.
In the case of `CCCN1CCc2ccc(NS(=O)(=O)c3ccc(C(F)(F)F)cc3)cc2CC1.Cl` [Example 6, N-(3-Propyl-2,3,4,5-Tetrahydro-1H-3-Benzazepin-7-yl)-4-(Trifluoromethyl)-Benzenesulfonamide Hydrochloride], the “Selectivity vs. D2L*” value in assay [1] is 252. Besides, the Ki in assay [2] (setting [3]) amounted to 5.8 nM.
For `CCCN1CCc2ccc(NS(=O)(=O)c3ccc(C(C)(C)C)cc3)cc2CC1.Cl` [Example 7, 4-Tert-Butyl-N-(3-Propyl-2,3,4,5-Tetrahydro-1H-3-Benzazepin-7-yl)Benzenesulfonamide Hydrochloride], in assay [1], the “Selectivity vs. D2L*” value came to 120. Besides, the Ki in assay [2] (setting [3]) came out at 4.1 nM.
Take `CCCN1CCc2ccc(N(C)S(=O)(=O)c3ccc(C(C)C)cc3)cc2CC1.O=C(O)C(F)(F)F` [Example 31, 4-Isopropyl-N-Methyl-N-(3-Propyl-2,3,4,5-tetrahydro-1H-3-Benzazepin-7-yl)Benzenesulfonamide Trifluoroacetate]: in assay [1], the “Selectivity vs. D2L*” value is listed as 63. Besides, the Ki in assay [2] (setting [3]) came out at 1 nM.
The matching figures for `CCCN1CCc2ccc(NS(=O)(=O)c3ccc(Cl)cc3)cc2CC1` [Example 3, 4-Chloro-N-(3-Propyl-2,3,4,5-Tetrahydro-1H-3-Benzazepin-7-yl)Benzenesulfonamide]: 68 and 4.1 nM.
For `CCCN1CCc2ccc(NS(=O)(=O)c3ccc(OC)cc3)cc2CC1.O=C(O)C(F)(F)F` [Example 16, 4-Methoxy-N-(3-Propyl-2,3,4,5-Tetrahydro-1H-3-Benzazepin-7-yl)Benzene-Sulfonamide Trifluoroacetate], the “Selectivity vs. D2L*” value in assay [1] amounted to 142. Further, the Ki in assay [2] (setting [3]) amounted to 8.1 nM.
In the case of `CC(C)c1ccc(S(=O)(=O)Nc2ccc3c(c2)CCN(CC2CC2)CC3)cc1.Cl` [Example 57, N-(3-Cyclopropylmethyl-2,3,4,5-Tetrahydro-1H-3-Benzazepin-7-yl)4-Isopropylbenzenesulfonamide Hydrochloride], the “Selectivity vs. D2L*” value in assay [1] came to 115. For the same compound, in assay [2] (setting [3]), the Ki was found to be 2.1 nM.
The like results for `C=CCN1CCc2ccc(NS(=O)(=O)c3ccc(C(F)(F)F)cc3)cc2CC1.Cl` [Example 58, N-(3-Allyl-2,3,4,5-Tetrahydro-1H-3-Benzazepin-7-yl)4-(Trifluoromethyl)Benzenesulfonamide Hydrochloride] were, in that order, 84 and 3.4 nM.
The matching figures for `CCCN1CCc2ccc(NS(=O)(=O)c3ccc(OC(F)(F)F)cc3)cc2CC1` [Example 2, N-(3-Propyl-2,3,4,5-Tetrahydro-1H-3-Benzazepin-7-yl)-4-Trifluoromethoxy-Benzenesulfonamide]: 99 and 7.1 nM.
For `CCCN1CCc2ccc(NS(=O)(=O)c3ccc(Br)cc3)cc2CC1.O=C(O)C(F)(F)F` [Example 19, 4-Bromo-N-(3-Propyl-2,3,4,5-Tetrahydro-1H-3-Benzazepin-7-yl)Benzene-Sulfonamide Trifluoroacetate], the “Selectivity vs. D2L*” value in assay [1] came out at 65. The inhibition constant (Ki) in assay [2] amounted to 3 nM.
Consider `CCCN1CCc2ccc(NS(=O)(=O)c3ccc(CC)cc3)cc2CC1.Cl` [Example 5, 4-Ethyl-N-(3-Propyl-2,3,4,5-Tetrahydro-1H-3-Benzazepin-7-yl)Benzenesulfonamide Hydrochloride], for which the “Selectivity vs. D2L*” value in assay [1] is 368. The Ki in assay [2] (setting [3]) came to 1 nM.
Consider `CCCN1CCc2ccc(NS(=O)(=O)c3c(C)cc(C)cc3C)cc2CC1.O=C(O)C(F)(F)F` [Example 12, 2,4,6-Trimethyl-N-(3-Propyl-2,3,4,5-Tetrahydro-1H-3-Benzazepin-7-yl)-Benzenesulfonamide Trifluoroacetate], for which, in assay [1], the “Selectivity vs. D2L*” value stood at 90. For the same compound, the Ki in assay [2] (setting [3]) amounted to 7.2 nM.
Take `CCCN1CCc2ccc(NS(=O)(=O)c3cc(Cl)sc3Cl)cc2CC1.O=C(O)C(F)(F)F` [Example 22, N-(3-Propyl-2,3,4,5-Tetrahydro-1H-3-Benzazepin-7-yl)-2,5-Dichlorothiophene-3-Sulfonamide Trifluoroacetate]: in assay [1], the “Selectivity vs. D2L*” value is on record as 46. The affinity in assay [2], expressed as Ki, was 13 nM.
